Experimental data taken from US20090068295A1, “Composition for treating cancer and method of using the same” (Chang Gung University, priority 2007, published 2009).

Legend:
[1] = tested on: human liver cancer cell line Sk-Hep-1; test: effect on the cell cycle of Sk-Hep-1; assay type: cell-based
Description: (§1) Please refer to FIG. 4A and FIG. 4B. […] Please further refer to the following Table 1 and Table 2.
As shown in FIG. 4A and Table 1, in the cell cycle of Sk-Hep-1, the percentage of G1, S, and G2 phases are about 43.04%, 30.9%, and 23.75% respectively. When treat the Sk-Hep-1 cells with 10 μM of 5-FU alone, the percentage of G1, S, and G2 phases are about 51.51%, 31.19%, and 17.3% respectively. From the comparison with the control, 5-FU can increase the percentage of G1 phase and reduce the percentage of G2 phase. […] From the results, 5-FU combined with EGCG can effectively interrupt the cell cycle of Sk-Hep-1 cells at G1 phase, and prevent the cell cycle from entering S phase.

[2] = tested on: human liver cancer cell line Hep-G2; test: effect on the cell cycle of Hep-G2; assay type: cell-based
Description: as §1
Furthermore, as shown in FIG. 4B and Table 2, in the cell cycle of Hep-G2, the percentage of G1, S, and G2 phases are about 52.7%, 26.54%, and 20.76% respectively. When treat the Hep-G2 cells with 10 μM of 5-FU alone, the percentage of G1, S, and G2 phases are about 47.04%, 42.68%, and 10.29% respectively. From the comparison with the control, 5-FU can increase the percentage of S phase and reduce the percentage of G1 phase and G2 phase. […] From the results, 5-FU combined with EGCG can effectively interrupt the cell cycle of Hep-G2 cells at G1 phase, and prevent the cell cycle from entering S phase and G2 phase.

P53 protein [3] = test: P53 protein expression of Sk-Hep-1; assay type: cell-based, human; conditions: Sk-Hep-1 cells, compared with control; concentrations not given
From the text: (§2) Referring to FIG. 5A and FIG. 5B.

P53 protein [4] = test: P53 protein expression of Hep-G2; assay type: cell-based, human; conditions: Hep-G2 cells, compared with control; concentrations not given
From the text: as §2
However, treat Hep-G2 with EGCG can reduce the expression of P53 protein to 0.74-fold.

[5] = tested on: human liver cancer cell line Sk-Hep-1; test: viability of human liver cancer cell line Sk-Hep-1 after treatment; conditions: for viability of Sk-Hep-1: after 48 hours
[6] = tested on: human leukemia cell line Jurkat T; test: viability of human leukemia cell line Jurkat T; assay type: cell-based; conditions: 5-FU alone
From the text: (§3) Please refer to FIG. 6A and FIG. 6B.

[7] = tested on: human leukemia cell line K562; test: viability of human leukemia cell line K562; assay type: cell-based; conditions: 5-FU alone
From the text: as §3

SMILES: O=C(O[C@@H]1Cc2c(O)cc(O)cc2O[C@@H]1c1cc(O)c(O)c(O)c1)c1cc(O)c(O)c(O)c1 [EGCG, Epigallocatechin gallate]
- Cell cycle phase G1 (%) ([1]; EGCG, 50 μM): 54.41 ± 5.4%
- Cell cycle phase G2 (%) ([1]; EGCG, 50 μM): 22.09 ± 2.2%
- Cell cycle phase S (%) ([1]; EGCG, 50 μM): 23.51 ± 3.2%
- Cell cycle phase G1 (%) ([1]; EGCG, 100 μM): 56.60 ± 3.8%
- Cell cycle phase G2 (%) ([1]; EGCG, 100 μM): 19.5 ± 0.7%
- Cell cycle phase S (%) ([1]; EGCG, 100 μM): 23.90 ± 3.1%
- Cell cycle phase G1 (%) ([1]; EGCG, 250 μM): 53.92 ± 1.9%
- Cell cycle phase G2 (%) ([1]; EGCG, 250 μM): 17.55 ± 1.7%
- Cell cycle phase S (%) ([1]; EGCG, 250 μM): 28.53 ± 2.3%
- Cell cycle phase G1 (%) ([2]; EGCG, 50 μM): 62.15 ± 2.4%
- Cell cycle phase G2 (%) ([2]; EGCG, 50 μM): 9.33 ± 4.7%
- Cell cycle phase S (%) ([2]; EGCG, 50 μM): 28.52 ± 4.3%
- Cell cycle phase G1 (%) ([2]; EGCG, 100 μM): 62.23 ± 5.7%
- Cell cycle phase G2 (%) ([2]; EGCG, 100 μM): 11.51 ± 4.1%
- Cell cycle phase S (%) ([2]; EGCG, 100 μM): 26.26 ± 3.5%
- Cell cycle phase G1 (%) ([2]; EGCG, 250 μM): 61.83 ± 1.6%
- Cell cycle phase G2 (%) ([2]; EGCG, 250 μM): 9.63 ± 1.7%
- Cell cycle phase S (%) ([2]; EGCG, 250 μM): 28.53 ± 1.3%
- expression of P53 protein (P53 protein [3]): 1.8 fold
- expression of P53 protein (P53 protein [4]): 0.74 fold
- viability of Sk-Hep-1 ([5]; 50 μM of EGCG): about 90%
- viability of Sk-Hep-1 ([5]; 100 μM of EGCG): ~80%
- viability of Sk-Hep-1 ([5]; 250 μM of EGCG): ~60%
- viability of Sk-Hep-1 ([5]; 500 μM of EGCG): ~50%

SMILES: O=c1[nH]cc(F)c(=O)[nH]1 [5-FU, 5-Fluorouracil]
- Cell cycle phase G2 (%) ([1]; 5-FU, 10 μM): 17.30 ± 0.3%
- Cell cycle phase S (%) ([1]; 5-FU, 10 μM): 31.19 ± 1.4%
- Cell cycle phase G2 (%) ([2]; 5-FU, 10 μM): 10.29 ± 2.5%
- Cell cycle phase S (%) ([2]; 5-FU, 10 μM): 42.68 ± 2.4%
- expression of P53 protein (P53 protein [3]): 1.64 fold
- expression of P53 protein (P53 protein [4]): 1.64 fold
- viability of Jurkat T [6]: about 80%
- effect on the viability of K562 [7]: almost no effect
- viability at 10 µM ([5]; Homo sapiens, SK-HEP1, 48 h, read-out: viability of Sk-Hep-1): ~75%
